Values joined by “and” are separate entries in the source; they are usually repeats but may differ in a detail not shown here. Equal values may be shown once.
Tested on: 422866-222-R5-J1-PDC spheroid viability
Experiment: Anticancer human tumor 422866-222-R5-J1-PDC patient-derived pancreatic adenocarcinoma cell line growth inhibition [CLK]
Settings: spheroids with HUVEC and MSC; for viability, T/C: stronger effect = lower value
Method in brief: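 Multi-cell-type spheroids combined patient-derived tumor cells with HUVEC endothelial cells and human mesenchymal stem cells. Paired agents were dosed in half-log steps down from about clinical Cmax, or from 10 microM where Cmax was unknown.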

[1] = curve of first compound, second compound 0.0316 µM
[2] = curve of first compound, second compound 0.1 µM
[3] = curve of first compound, second compound 0.316 µM
[4] = curve of first compound, second compound 1 µM
[5] = curve of first compound, second compound 3.16 µM
[6] = curve of first compound, second compound 10 µM
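Also: spheroids exposed to agents for seven days before readout.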

COC1C=CCC(C)C(C)S(=O)(=O)NC(=O)c2ccc3c(c2)N(CC2CCC21)CC1(CCCc2cc(Cl)ccc21)CO3 (stereo not drawn)
viability, T/C (compound 0.0316 µM): 102% and 113%
viability, T/C (compound 0.1 µM): 91.9% and 102%
viability, T/C (compound 0.316 µM): 95.6% and 101%
viability, T/C (compound 1 µM): 97.8% and 87.8%
viability, T/C (compound 3.16 µM): 87.5% and 111%
viability, T/C (compound 10 µM): 59.8% and 69.4%
IC50 (curve of compound): > 10 µM

COc1cccc2c1C(=O)c1c(O)c3c(c(O)c1C2=O)CC(O)(C(=O)CO)CC3OC1CC(N)C(O)C(C)O1 (stereo not drawn) + CNC(=O)c1ccc(Nc2nc(OC3CCCC3)c3c(-c4ccc5nc(C)oc5c4)c[nH]c3n2)c(OC)c1
IC50 [1]: 0.16 µM
IC50 [2]: 0.106 µM
IC50 [3]: 0.0855 µM
IC50 [4]: 0.0791 µM
IC50 [5]: 0.109 µM
IC50 [6]: < 0.0316 µM
viability, T/C (second compound 0.0316 µM, first compound 0.0316 µM): 65%
viability, T/C (second compound 0.0316 µM, first compound 0.1 µM): 60.4%
viability, T/C (second compound 0.0316 µM, first compound 0.316 µM): 34.8%
viability, T/C (second compound 0.0316 µM, first compound 1 µM): 28.6%
viability, T/C (second compound 0.0316 µM, first compound 3.16 µM): 30.4%
viability, T/C (second compound 0.0316 µM, first compound 10 µM): 27.8%
viability, T/C (second compound 0.1 µM, first compound 0.0316 µM): 66.2%
viability, T/C (second compound 0.1 µM, first compound 0.1 µM): 50.3%
viability, T/C (second compound 0.1 µM, first compound 0.316 µM): 37.8%
viability, T/C (second compound 0.1 µM, first compound 1 µM): 28.2%
viability, T/C (second compound 0.1 µM, first compound 3.16 µM): 30.9%
viability, T/C (second compound 0.1 µM, first compound 10 µM): 28.6%
viability, T/C (second compound 0.316 µM, first compound 0.0316 µM): 67.6%
viability, T/C (second compound 0.316 µM, first compound 0.1 µM): 47.1%
viability, T/C (second compound 0.316 µM, first compound 0.316 µM): 38.7%
viability, T/C (second compound 0.316 µM, first compound 1 µM): 36.6%
viability, T/C (second compound 0.316 µM, first compound 3.16 µM): 35.2%
viability, T/C (second compound 0.316 µM, first compound 10 µM): 33.4%
viability, T/C (second compound 1 µM, first compound 0.0316 µM): 60.1%
viability, T/C (second compound 1 µM, first compound 0.1 µM): 47.5%
viability, T/C (second compound 1 µM, first compound 0.316 µM): 31.1%
viability, T/C (second compound 1 µM, first compound 1 µM): 32.2%
viability, T/C (second compound 1 µM, first compound 3.16 µM): 31.2%
viability, T/C (second compound 1 µM, first compound 10 µM): 30.5%
viability, T/C (second compound 3.16 µM, first compound 0.0316 µM): 48.6%
viability, T/C (second compound 3.16 µM, first compound 0.1 µM): 53.3%
viability, T/C (second compound 3.16 µM, first compound 0.316 µM): 39%
viability, T/C (second compound 3.16 µM, first compound 1 µM): 30.1%
viability, T/C (second compound 3.16 µM, first compound 3.16 µM): 34.3%
viability, T/C (second compound 3.16 µM, first compound 10 µM): 35.9%
viability, T/C (second compound 10 µM, first compound 0.0316 µM): 48.9%
viability, T/C (second compound 10 µM, first compound 0.1 µM): 41.1%
viability, T/C (second compound 10 µM, first compound 0.316 µM): 35.2%
viability, T/C (second compound 10 µM, first compound 1 µM): 31.1%
viability, T/C (second compound 10 µM, first compound 3.16 µM): 32%
viability, T/C (second compound 10 µM, first compound 10 µM): 48.9%

Nc1ccccc1NC(=O)c1ccc(CNC(=O)OCc2cccnc2)cc1
viability, T/C (compound 0.0316 µM): 102% and 93.7%
viability, T/C (compound 0.1 µM): 129% and 108%
viability, T/C (compound 0.316 µM): 144% and 139%
viability, T/C (compound 1 µM): 106% and 104%
viability, T/C (compound 3.16 µM): 78.5% and 92.5%
viability, T/C (compound 10 µM): 86.9% and 81.8%
IC50 (curve of compound): > 10 µM

C=CC(=O)Nc1cc(Nc2nccc(-c3cn(C)c4ccccc34)n2)c(OC)cc1N(C)CCN(C)C + CN1CCN(c2cc(C(=O)Nc3cc4cc(-c5cnn(C)c5)ccc4cn3)ccn2)CC1
IC50 [1]: > 0.3 µM
IC50 [2]: > 0.3 µM
IC50 [3]: > 0.3 µM
IC50 [4]: < 0.000949 µM
IC50 [5]: < 0.000949 µM
IC50 [6]: < 0.000949 µM
viability, T/C (second compound 0.0316 µM, first compound 0.000949 µM): 122%
viability, T/C (second compound 0.0316 µM, first compound 0.003 µM): 103%
viability, T/C (second compound 0.0316 µM, first compound 0.00949 µM): 114%
viability, T/C (second compound 0.0316 µM, first compound 0.03 µM): 96%
viability, T/C (second compound 0.0316 µM, first compound 0.0949 µM): 93.9%
viability, T/C (second compound 0.0316 µM, first compound 0.3 µM): 77.8%
viability, T/C (second compound 0.1 µM, first compound 0.000949 µM): 133%
viability, T/C (second compound 0.1 µM, first compound 0.003 µM): 129%
viability, T/C (second compound 0.1 µM, first compound 0.00949 µM): 107%
viability, T/C (second compound 0.1 µM, first compound 0.03 µM): 105%
viability, T/C (second compound 0.1 µM, first compound 0.0949 µM): 94.2%
viability, T/C (second compound 0.1 µM, first compound 0.3 µM): 93.2%
viability, T/C (second compound 0.316 µM, first compound 0.000949 µM): 94%
viability, T/C (second compound 0.316 µM, first compound 0.003 µM): 87.2%
viability, T/C (second compound 0.316 µM, first compound 0.00949 µM): 93.7%
viability, T/C (second compound 0.316 µM, first compound 0.03 µM): 83.9%
viability, T/C (second compound 0.316 µM, first compound 0.0949 µM): 87.6%
viability, T/C (second compound 0.316 µM, first compound 0.3 µM): 79%
viability, T/C (second compound 1 µM, first compound 0.000949 µM): 29.3%
viability, T/C (second compound 1 µM, first compound 0.003 µM): 36.8%
viability, T/C (second compound 1 µM, first compound 0.00949 µM): 35.3%
viability, T/C (second compound 1 µM, first compound 0.03 µM): 29.3%
viability, T/C (second compound 1 µM, first compound 0.0949 µM): 30.8%
viability, T/C (second compound 1 µM, first compound 0.3 µM): 23.7%
viability, T/C (second compound 3.16 µM, first compound 0.000949 µM): 9.51%
viability, T/C (second compound 3.16 µM, first compound 0.003 µM): 9.88%
viability, T/C (second compound 3.16 µM, first compound 0.00949 µM): 10.5%
viability, T/C (second compound 3.16 µM, first compound 0.03 µM): 10.5%
viability, T/C (second compound 3.16 µM, first compound 0.0949 µM): 9.87%
viability, T/C (second compound 3.16 µM, first compound 0.3 µM): 9.45%
viability, T/C (second compound 10 µM, first compound 0.000949 µM): 2.62%
viability, T/C (second compound 10 µM, first compound 0.003 µM): 2.53%
viability, T/C (second compound 10 µM, first compound 0.00949 µM): 2.32%
viability, T/C (second compound 10 µM, first compound 0.03 µM): 1.8%
viability, T/C (second compound 10 µM, first compound 0.0949 µM): 1.99%
viability, T/C (second compound 10 µM, first compound 0.3 µM): 1.66%

From PubChem BioAssay AID2060603 (Molecular Pharmacology Branch, DTP, NCI, 2025)
